These results are taken from patent US20100278849A1, “PROSTATIC ACID PHOSPHATASE ANTIGENS” (priority 2004, published 2010).

One assay concerns the target HLA-A2 (Homo sapiens, UniProt P04439, D140Y/D185E/D98H/E176V/E277Q/G131W/G231S/I119V/I121R/I166T/I218V/L300P/L318F/N151K/N90K/P208A/P217A/Q86G/Q94H/R138H/R169H/T345S). The conditions noted are these: earlier reports; cited from earlier work.
The target of a further assay is HLA-A2*0201 (Homo sapiens, UniProt P04439, D140Y/D185E/D98H/E176V/E277Q/G131W/G231S/I119V/I121R/I166T/I218V/L300P/L318F/N151K/N90K/P208A/P217A/Q86G/Q94H/R138H/R169H/T345S). The format is cell-based.

“Also recorded” adds a separate entry of the source.

Turning to ALDVYNGLL [PAP.299, reference compound], on HLA-A2, the “HLA-A2 binding previously described” value was “strong HLA-A2 binding”. For the same sequence, on HLA-A2*0201, the “binding to HLA-A2 (T2 cells)” value is recorded as “no significant binding; also recorded: unable to confirm the strong HLA-A2 binding”.
